Data reported in patent US7767200B2, “Cancer treatment using viruses, fluoropyrimidines and camptothecins” (Wellstat Biologics Corporation, priority 2005, dated 2010).

How the values were obtained:
[1] = test system: human HT1080 fibrosarcoma cells; set-up: species or system athymic mice; settings: mouse, in vivo
[2] = test system: human SW620 colon carcinoma cells; set-up: species or system athymic mice; settings: mouse, in vivo

SMILES	Complete Tumor Responses (CR), % [1] [%]	Durable CRs, % [2] [%]
O=c1[nH]cc(F)c(=O)[nH]1 [5-FU, 5-fluorouracil]	0	0
CCc1c2c(nc3ccc(OC(=O)N4CCC(N5CCCCC5)CC4)cc13)-c1cc3c(c(=O)n1C2)COC(=O)[C@]3(O)CC [Irinotecan, 7-ethyl-10-[4-(1-piperidino)-1-piperidino]-carbonyloxycamptothecin]		0
